Test results from patent US9284315B2, “Three-ring PI3K and/or mTOR inhibitor” (XUANZHU PHARMA CO., LTD., priority 2011, dated 2016).
Several values for one entry are separate records, joined by “and”; a condition that tells them apart may be missing. Equal entries are not always repeated. Where two headings read alike, the source gives them in different places.

Assays:
SD rats = experiment: Repeated-dose toxicity test in rats; assay type: in vivo; conditions: 14 days; for hair loss (animals affected) / lassitude (animals affected) / loose stools (animals affected): gavage once daily, 20 rats
Description: The test substances were suspended in 0.5% methylcellulose solution to prepare suspensions with a concentration of 0.5 mg/mL, 1.5 mg/mL and 3 mg/mL.
Animals: SD rats, 6-8 weeks old, SPF grade, purchased from Beijing Vital River Laboratory Animal Technology Co., Ltd., licensed […] No: SCXK (Beijing) 2006-0009.
The test substances were administrated as a suspension via gavage, and administrating volume was 10 mL/kg. 0.5% methyl cellulose solution was used in the solvent group, and the administrating volume was 10 mL/kg, administered once daily for consecutive 14 days. Animals were observed daily appearance and general behavior changes.

[1] = In vivo pharmacokinetics in rats, gavage (PO); conditions: male, SD, rat, plasma, 4 mg/kg
mTOR [2] = molecular target: T1, mTOR (Homo sapiens (Human), UniProt P42345); experiment: mTOR inhibitory activity, Method 1 activity test; assay type: biochemical; conditions: 4EBP1 50 nM, ATP 10.8 μM
Description: Determination of the Inhibitory Activity of mTOR
(§1) 1. Preparation of test reagents
(1) 1× kinase buffer (50 mM HEPES, pH 7.5, 10 mM MgCl2, 1 mM EGTA, 3 mM MnCl, 0.01% Tween-20, 2 mM DTT);
(2) 4× kinase solution (added mTOR kinase to 1× kinase buffer to provide 4× kinase solution with a final concentration of 2.5 nM);
(3) 2× substrate solution (added the substrates of 4EBP1 and ATP into 1× kinase buffer to provide 2× substrate solution with 4EBP1 final concentration of 50 nM and ATP final concentration of 10.8 μM);
(4) 4× test substance solutions (100× test substance solutions with different concentration gradients were prepared using 100% DMSO, and diluted 25-fold with 1× kinase buffer to give 4× test substance solutions with different concentration gradients)
(5) preparation of test solution (test solution containing EDTA and 4EBP1 phosphorylated antibody was prepared using activity test kit with assay buffer, the final concentration of EDTA was 8 mM, and the final concentration of 4EBP1 phosphorylated antibody was 2 nM)
(§2) 2. 2.5 μL of 4× test solution was added to a 384-well plate in parallel;
(§3) 3. added […] of 4× kinase solution and incubated for 10 min;
4. then added 5 μL of 2× solutions of 4EBP1 and ATP substrates and incubated for 1 h at room temperature;
5. finally, added 10 μL of test solution to quench the reaction, and read after 60 min;
(§4) 6. IC50 value was obtained via curve fitting. Inhibition rate (%)=(sample value−minimum)/(maximum−minimum)×100
Minimum refers to the readings of control wells without enzyme, maximum refers to the readings of DMSO control wells.
(§5) IC50 value was obtained via curve fitting using a soft of Graphpad 5.0.

PI3Kα [3] = molecular target: T2, PI3Kα (Homo sapiens (Human), UniProt P42336); experiment: PI3K inhibitory activity, Method 1 activity test; assay type: biochemical; conditions: PIP2 50 μM, ATP 25 μM
T2 sequence (P42336 whole entry): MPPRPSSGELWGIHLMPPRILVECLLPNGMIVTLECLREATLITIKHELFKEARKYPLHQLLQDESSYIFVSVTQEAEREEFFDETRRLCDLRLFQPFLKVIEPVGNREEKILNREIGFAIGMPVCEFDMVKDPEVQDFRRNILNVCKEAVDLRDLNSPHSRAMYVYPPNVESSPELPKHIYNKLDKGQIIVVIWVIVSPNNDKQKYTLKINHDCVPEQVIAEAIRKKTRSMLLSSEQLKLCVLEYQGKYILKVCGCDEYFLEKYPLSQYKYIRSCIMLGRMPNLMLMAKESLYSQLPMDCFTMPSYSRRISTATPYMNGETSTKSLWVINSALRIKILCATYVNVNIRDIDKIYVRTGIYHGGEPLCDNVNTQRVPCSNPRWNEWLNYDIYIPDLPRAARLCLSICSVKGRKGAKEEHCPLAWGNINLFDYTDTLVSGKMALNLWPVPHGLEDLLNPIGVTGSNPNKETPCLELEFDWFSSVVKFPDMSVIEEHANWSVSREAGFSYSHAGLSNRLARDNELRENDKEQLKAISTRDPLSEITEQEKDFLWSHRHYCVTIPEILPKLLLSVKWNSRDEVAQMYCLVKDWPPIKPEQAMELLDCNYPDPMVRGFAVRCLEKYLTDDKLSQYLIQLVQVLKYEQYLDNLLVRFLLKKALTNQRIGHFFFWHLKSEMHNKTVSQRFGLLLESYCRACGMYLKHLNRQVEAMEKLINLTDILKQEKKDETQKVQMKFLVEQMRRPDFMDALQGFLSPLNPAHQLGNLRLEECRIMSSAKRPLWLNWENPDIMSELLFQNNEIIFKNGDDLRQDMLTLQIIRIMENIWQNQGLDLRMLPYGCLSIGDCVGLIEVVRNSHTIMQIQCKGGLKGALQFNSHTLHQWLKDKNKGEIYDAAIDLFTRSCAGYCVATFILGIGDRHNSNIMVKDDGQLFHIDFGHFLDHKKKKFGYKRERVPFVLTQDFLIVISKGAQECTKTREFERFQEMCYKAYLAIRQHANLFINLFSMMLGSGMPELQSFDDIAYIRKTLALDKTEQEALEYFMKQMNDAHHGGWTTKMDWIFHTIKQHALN
T2 sequence (P27986 whole entry partner): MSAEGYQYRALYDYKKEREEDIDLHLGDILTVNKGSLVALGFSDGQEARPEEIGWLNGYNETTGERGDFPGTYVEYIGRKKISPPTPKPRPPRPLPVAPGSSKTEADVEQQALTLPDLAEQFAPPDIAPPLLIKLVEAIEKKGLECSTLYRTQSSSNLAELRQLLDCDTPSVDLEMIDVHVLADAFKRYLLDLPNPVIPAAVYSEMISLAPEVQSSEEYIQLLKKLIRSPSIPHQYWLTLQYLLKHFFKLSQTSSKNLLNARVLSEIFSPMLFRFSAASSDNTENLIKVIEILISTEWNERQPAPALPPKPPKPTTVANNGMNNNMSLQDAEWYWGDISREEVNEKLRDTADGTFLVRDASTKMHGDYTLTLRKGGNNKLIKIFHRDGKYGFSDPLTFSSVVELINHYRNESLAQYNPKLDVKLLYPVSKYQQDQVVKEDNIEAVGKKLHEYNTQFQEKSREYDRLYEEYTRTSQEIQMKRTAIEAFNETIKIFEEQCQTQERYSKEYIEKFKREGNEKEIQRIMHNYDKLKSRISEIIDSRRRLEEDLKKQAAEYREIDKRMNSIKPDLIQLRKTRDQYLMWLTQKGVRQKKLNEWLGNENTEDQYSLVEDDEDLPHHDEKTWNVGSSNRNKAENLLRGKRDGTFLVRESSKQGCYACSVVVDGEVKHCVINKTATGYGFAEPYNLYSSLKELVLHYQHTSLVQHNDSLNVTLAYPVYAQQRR
Description: Determination of the inhibitory activity of PI3K
as §1
(1) 1× kinase buffer (50 mM HEPES, pH 7.5, 3 mM MgCl2, 1 mM EGTA, 100 mM NaCl, 0.03% CHAPS, 2 mM DTT);
(2) 4× kinase solution (added PI3K a kinase to 1× kinase buffer to provide 4× kinase solution with a final concentration of 1.65 nM);
(3) 2× substrate solution (added the substrates of PIP2 and ATP into 1× kinase buffer to provide 2× substrate solution with PIP2 final concentration of 50 μM and ATP final concentration of 25 μM);
(4) 4× test substance solutions (100× test substance solutions with different concentration gradients were prepared using 100% DMSO, and diluted 25-fold with 1× kinase buffer to give 4× test substance solutions with different concentration gradients);
(5) Invitrogen's activity test kit with the test solution was kept stand to room temperature.
as §2, §3
4. then added 5 μL of 2× solutions of PIP2 and ATP substrates and incubated for 1 h at room temperature;
5. finally, added 10 μL of test solution to quench the reaction, and read after 15 min;
as §4
Maximum refers to the readings of control wells without enzyme, minimum refers to the readings of DMSO control wells.
as §5

U87MG = experiment: Cell viability assay by XTT method, U87MG; assay type: cell-based; conditions: Homo sapiens, U-87 MG
Description: (§6) 1. Preparation of Reagents and Compounds
(§7) 2) Preparation of XTT test working solution:
(§8) 100 mg of tetrazolium salt (XTT) powder was weighed and dissolved in dark in 300 mL of phenol red-free serum-free RPMI1640 medium heated to 50° C., filtered and subpackaged, used immediately or within a week. All process should be conducted in dark.
(§9) 3) Preparation of test compounds
(§10) preparation of stock solutions of the test substances: the powder of test substances was dissolved in DMSO in a concentration of 10 mM.
(§11) preparation of gradiently diluted stock solutions of test substances: First, 10 mM of the stock solutions of test substances were diluted serially in 4-fold with DMSO to 10 concentrations. 2 μL of DMSO-diluted solution for each compound was taken and added to 998 μL of culture medium containing 10% fetal bovine serum (FBS). The highest concentration of the test substances was 20 μM, the concentration of DMSO was 0.2%, and there were 10 concentration gradients in total.
(§12) 1) Preparation of cell suspension
(§13) The culture medium was discarded from the flask, and the cells were washed twice with PBS. Added trypsinase to digest the cell and then collected by centrifugation, resuspended with a medium containing 10% FBS, counted and adjusted to an appropriate concentration (cell viability must be greater than 90%). The cell concentration was […].
(§14) 2) The cell suspension was added to 96-well plates, each well 100 μL.
(§15) 3) Incubated in a cell incubator overnight at 37° C., 5% CO2.
(§16) Added compound diluted 2-fold to the cell culture plates, three repeated in total, 100 μL well.
(§17) 5. Cell Viability Assay by XTT Method
(§18) Discarded the culture medium, added XTT test working liquid in an amount of 150 μL well, and kept in a cell incubator at 37° C., 5% CO2 for 2 h, then placed into a microplate reader and read the absorbance at 450 nm.
(§19) 1) The percentage of inhibition was calculated using the following formula: Inhibition rate (%)=(reading(solvent)−reading(compound))/reading(solvent)−reading(positive control))×100
(§20) 2) The data was entered into GraphPad Prism 5.0 and plotted to obtain the curve and IC50.

SKOV-3 = experiment: Cell viability assay by XTT method, SKOV-3; assay type: cell-based; conditions: Homo sapiens, SK-OV-3
Description: as §6, §7, §8, §9, §10, §11, §12, §13, §14, §15, §16, §17, §18, §19, §20

[4] = In vivo pharmacokinetics in rats, intravenous bolus injection (IV); conditions: 2 mg/kg; for AUC / half-life: male, SD, rat, plasma, iv; for Cl_obs / Vss_obs: rats, IV
PI3Kα [5] = molecular target: T2, PI3Kα; experiment: biochemical; assay type: binding
in vivo [6] = conditions: male, SD, rat, po, 4 mg/kg
[7] = male, SD, rat, in vivo, iv, 2 mg/kg
in vivo [8] = conditions: male, SD, rat, iv, 2 mg/kg
mTOR [9] = molecular target: T1, mTOR; experiment: biochemical; assay type: binding

| Structure (SMILES) | AUC [1] | Cmax [1] | bioavailability [1] | half-life [1] | IC50 (mTOR [2]) | IC50 (PI3Kα [3]) | IC50 (U87MG) | IC50 (SKOV-3) | AUC [4] | half-life [4] | Cl_obs [4] | Vss_obs [4] | IC50 (PI3Kα [5]) | IC50 (mTOR [9]) | further results |
| --- | --- | --- | --- | --- | --- | --- | --- | --- | --- | --- | --- | --- | --- | --- | --- |
| CN1Cc2cnc3ccc(-c4ccc(N)nc4)nc3c2N(c2cccc(C(F)(F)F)c2)C1=O [Compound 3] | 1380 ng·h/mL | 198 ng/mL | 40.4% | 5.33 h | 0.00886 µM | 0.0104 µM | 0.0847 µM | 0.155 µM | 1700 ng·h/mL | 6.48 h | 19 mL/min/kg | 5.6 L/kg | – | – | hair loss (animals affected) (SD rats; high dose 30 mg/kg/day): one and 1/20; lassitude (animals affected) (SD rats; high dose 30 mg/kg/day): four and 4/20; loose stools (animals affected) (SD rats; high dose 30 mg/kg/day): one and 1/20; abnormal vital signs (SD rats; low dose 5 mg/kg/day): no animals with abnormal vital signs; hair loss (animals affected) (SD rats; low dose 5 mg/kg/day): 0/20; lassitude (animals affected) (SD rats; low dose 5 mg/kg/day): 0/20; loose stools (animals affected) (SD rats; low dose 5 mg/kg/day): 0/20; hair loss (animals affected) (SD rats; middle dose 15 mg/kg/day): 0/20; lassitude (animals affected) (SD rats; middle dose 15 mg/kg/day): 0/20; loose stools (animals affected) (SD rats; middle dose 15 mg/kg/day): one and 1/20 |
| CN1Cc2cnc3ccc(-c4cnc(N)nc4)nc3c2N(c2cccc(C(F)(F)F)c2)C1=O [Compound 14, 9-(2-aminopyrimidin-5-yl)-3-methyl-1-(3-(trifluoromethyl)phenyl)-3,4-dihydropyrimido[5,4-c][1,5]naphthyridin-1(2H)-one] | 402 ng·h/mL | 147 ng/mL | 26.3% | 1.39 h | 0.0085 µM | 0.0033 µM | 0.437 µM | 0.89 µM | 735 ng·h/mL | 2.08 h | 47.3 mL/min/kg | 2.97 L/kg | – | – | Tmax [1]: 0.5 h |
| COc1ccc(-c2ccc3ncc4c(c3n2)N(C2CCN(C(=O)[C@@H](C)O)CC2)C(=O)N(C)C4)cn1 [Compound 86, (R)-1-(1-(2-hydroxypropanoyl)piperidin-4-yl)-9-(6-methoxypyridin-3-yl)-3-methyl-3,4-dihydropyrimido[5,4-c][1,5]naphthyridin-2(1H)-one] | – | – | – | – | – | – | – | – | – | – | – | – | 0.0097 µM | 0.257 µM | AUC (in vivo [6]): 177 ng·h/mL; Cmax (in vivo [6]): 251 ng/mL; Tmax (in vivo [6]): 0.33 h; bioavailability (in vivo [6]): 58%; half-life (in vivo [6]): 1.04 h; Cl_obs [7]: 227 mL/min/kg; Vss_obs [7]: 3.58 L/kg; AUC (in vivo [8]): 154 ng·h/mL; half-life (in vivo [8]): 0.2 h |
| COc1ccc(-c2ccc3ncc4c(c3n2)N(C2CCNCC2)C(=O)N(C)C4)cn1 [Compound 114] | – | – | – | – | – | – | – | – | – | – | – | – | 0.115 µM | 0.732 µM | – |
